| SMILES | melting point [°C] |
| --- | --- |
| CCOC(=O)c1c(C)cc2[nH]c(=O)n(-c3ccccc3C(F)(F)F)c(=O)c2c1C | 175 to 176 |
| COc1cc2nc(N3CCc4ccc(N)cc4C3)nc(N)c2cc1OC | 265 to 266 |
| CCOC(=O)C1=C(C)NC(C)=C(C#N)C1c1cccc2c1SC(c1ccccc1)=CC2 (stereo not drawn) | 206 to 207 |
| CCCCCCCNC(=O)Nc1ccc(OCC)cc1C(=O)NCC1CCN(C(c2ccccc2)c2ccccc2)CC1 | 188 to 189 |
| CCSc1nc(Cl)c2sc3nc(-c4ccccc4)cc(C)c3c2n1 | 150 to 154 |
| CC(C)(C)n1cnc2c(O)nc3ccccc3c21 | > 300 |
| N=C(Nc1ccc(Cl)cc1)Nc1ncccc1OCc1c(F)cc(F)cc1F | 161 to 162 |
| CC(C)(C)c1ccccc1N1CCN(C(=O)CCC(=O)O)CC1 | 175 to 176 |
| CCn1nc2c(N)nc3ccccc3c2c1CC(C)(C)C | 240 |
| CC(C)Sc1ccoc1C(=O)Nc1nnn[nH]1 | 201 to 203 |
| O=Cc1ccc(C=Cc2ccc(C=O)cc2)cc1 | 169 |
| CCc1ccc(OC)c(-c2csc(NC(=O)c3ccc(C(=O)NCCN4CCCC4)cc3)n2)c1 | 170 |
| Cn1cc(C=O)cc1C(=O)OC(C)(C)C | 92 |
| ClC(Cl)(Cl)c1nc(-c2ccccc2-c2ccc(CBr)cc2)no1 | 77 to 79 |
| CCOC(=O)Nc1ccc(-n2ccc(C#N)c2)c(F)c1 | 188 to 190 |
| COc1ccc(-c2c(C)c3ccc(OC(C)=O)c(O)c3oc2=O)c(OC)c1 | 140 to 141 |
| CCCCc1nc(SC)cn1Cc1ccc(-c2ccccc2S(=O)(=O)N=CN(C)C)cc1 | 148 |
| COc1cnc(Cl)c(C(=O)O)c1 | 169 to 170 |
| CSc1nc(C)cc(-c2ccc(C(F)(F)F)cc2)n1 | 77 to 80 |
| COc1ccc(C(=O)Oc2ccc(C(=O)O)cc2CO)cc1C12CC3CC(CC(C3)C1)C2 | 214 to 216 |
| CCCCCCC(=O)Nc1ccc(-n2nc(C(F)(F)F)cc2C(F)(F)F)cc1 | 88 to 90 |
| CCOC(=O)c1cnc2n(c1=O)-c1ccccc1N(C(C)=O)C2 | 152 to 155 |
| Cc1cccc(-c2n[nH]cc2-c2ccc(F)c(-c3ccc(S(N)(=O)=O)cc3)c2)n1 | 115 to 118 |
| COC(=O)C1CCC2C3CCC4CC(OC(C)=O)CCC4(C)C3C(NC3CCCCC3)CC12C (stereo not drawn) | 126 to 128 |
| O=[N+]([O-])c1ccc2[nH]cc(C3=CCN(CC4CC4)CC3)c2c1 | 187 to 188 |

| SMILES | melting point [°C] |
| --- | --- |
| O=C(O)CCCCCc1nn(-c2ccc(F)cc2)c2c1CCCC2 | 95 to 96 |
| CCCNc1nc(OC)ccc1[N+](=O)[O-] | 69 to 70 |
| O=C(Cl)c1cc(OCc2ccccc2)cc([N+](=O)[O-])c1 | 84 to 85 |
| O=c1cc(C(F)(F)F)c2ccc(NCCc3ccccc3)nc2o1 | 104 to 106 |
| COc1ccc(CC(SC)C(=O)O)cc1C(=O)NCc1ccc(C(F)(F)F)cc1 (stereo not drawn) | 170 to 171 |
| CNc1ccc(NC(=O)c2cc3cc(F)ccc3n2Cc2cccc(F)c2)cn1 | 225 to 227 |
| S=C(NCN1CCOCC1)C(c1ccccc1)c1ccccn1 (stereo not drawn) | 128 to 130 |
| Cn1ncnc1COc1nn2c(-c3ccc(F)cc3F)nncc2c1-c1ccccc1F | 164 to 166 |
| COc1cc(C(=O)O)ccc1Cn1cc(/C=C/C(=O)N2CCCC2)c2ccc(/C=C/C(=O)N3CCCC3)cc21 | 286 to 288 |
| CCc1cc([N+](=O)[O-])c(N)c([N+](=O)[O-])c1COC | 71 to 73 |
| COc1ccc(-c2nc3cc(F)ccc3s2)cc1OC(=O)c1ccccc1Br | 220 to 223 |
| CC1(C)Oc2ccc(C#N)cc2[C@@H](N2CCCC2=NC#N)[C@@H]1O (relative stereo) | 246 to 247 |
| CN(C)C(=O)c1cnn(C)c1C(=O)Nc1ccn2nc(N3CCOCC3)nc2c1 | 237 to 240 |
| CC(C)(C)CC(=O)N1CCN(c2ccc3ncc(Br)n3n2)CC1 | 170 to 171 |
| CCCCc1nnc(SCc2ccc(OC)cc2)n1Cc1ccc(OC(C(=O)O)c2ccccc2)cc1 (stereo not drawn) | 78 to 79 |
| Cc1cccc(C)c1N(Cn1cc(C(C)C)cn1)C(=O)CCl | 58 |
| CCOC(=O)CCc1c[nH]c2cnc(-n3cnnc3)cc12 | 215 to 218 |
| CC(C)n1nc(-c2nc(N)cnc2-c2ccccc2)ccc1=O | 214 to 217 |
| NC(=O)c1cccc(-c2ccnc3cc(Cc4cccc(C(F)(F)F)c4)sc23)c1 | 191 to 192 |
| CC1(C)C(=O)N(c2ccc(C#N)c(C(F)(F)F)c2)C(=O)N1CCF | 10 |
| CCC(C(=O)O)N(C(=O)c1cccn1-c1ccc(F)cc1)c1ccc(N2CCCCC2)c(C#N)c1 (stereo not drawn) | 138 to 139 |
| O=C(O)COc1cc2cc(C3CCCC3)sc2c(Cl)c1Cl | 173 to 174 |
| CCOC(=O)Cc1csc(-c2c(O)cccc2O)n1 | 152 to 154 |
| Cn1c2ccccc2c2cc(CN3CCOCC3)sc21 | 102 to 106 |
| Cc1cc(Oc2ccc([N+](=O)[O-])c(C)c2)n[nH]1 | 114 to 117 |

| SMILES | melting point [°C] |
| --- | --- |
| CCCc1nnc(Cc2cn(-c3ccccc3)nc2OCc2ccc(OCc3nc(-c4ccco4)oc3C)c(OC)c2)o1 | 102 to 103 |
| COc1ccc2c(c1)CCC(CC(=O)N1CCCCC1)C2 (stereo not drawn) | 59 to 61 |
| Cc1ccc(Cn2nc(C(=O)O)cc2-c2ccc(F)cc2)cc1Cl | 120 |
| CC(O)(c1ccc(F)cc1)C1CCNCC1 (stereo not drawn) | 184 to 186 |
| CC(C)(C)c1ccc(-c2snnc2S)cc1 | > 150 |
| COc1ccc(S(=O)(=O)Nc2ccccc2NC(=O)c2ccc(F)cc2Cl)cc1 | 160 to 162 |
| CC1(C)OC(=O)Nc2ccc(/C(=C/C#N)c3ccccc3)cc21 | 205 to 206 |
| CCC(=O)c1cc(C#N)c(=O)[nH]c1C=CN(C)C | 278 to 280 |
| CC(CN(O)C(N)=O)OCc1cc2ccccc2s1 (stereo not drawn) | 132 to 133 |
| COc1cc(NS(=O)(=O)c2ccc3c(c2)CCN3C=O)cc(OC)c1OC | 200 to 201 |
| C[C@H](OC(=O)Oc1ccc([N+](=O)[O-])cc1)C(=O)N[C@@H]1C(=O)Nc2c(F)cccc2O[C@@H]1C | 140 to 145 |
| CN1CCC(OC2c3ccccc3CCn3c2nc(I)c3I)CC1 (stereo not drawn) | 163 |
| COC(=O)C(NS(=O)(=O)c1ccc(-c2ccc([N+](=O)[O-])cc2)cc1)C(C)C (stereo not drawn) | 144 to 146 |
| c1nc2c(cc1NC1=NCCN1)CCCC2 | 201 to 203 |
| O=Cc1c2ccccc2c(Cl)c2ccc(Cl)cc12 | 176 |
| NNc1ccc(CS(N)(=O)=O)cc1 | 156 to 158 |
| O=C(NOCCO)c1cc(Cl)c(F)c(F)c1Nc1ccc(I)cc1F | 180 |
| CCOC(=O)c1ccc(-c2nc(CCl)c(C)o2)o1 | 117 to 118 |
| O=C(O)c1ccc(-n2ncc3ccccc32)cc1 | 171 to 172 |
| Nc1c(CO)cccc1[N+](=O)[O-] | 100 |
| COc1c(NC(=O)c2ccc(-c3ccncc3)cc2)cccc1N1CCN(C)CC1 | 153 to 155 |
| Cn1ccc2c3c(c(-c4ccccc4S(C)=O)cc21)C(=O)NC3=O (stereo not drawn) | 311 to 315 |
| C=CCC(O)(CCCc1ccc(Cl)cc1)c1ccc(OCc2ccc3ccccc3n2)cc1 (stereo not drawn) | 87 to 88 |
| O=C(O)CNC1=Nc2ccccc2C(c2ccccc2)=NC1NC(=O)Nc1ccc(Cl)cc1 (stereo not drawn) | 186 |
| CCCCCC(=O)c1cccc(OCc2ccc3ccccc3n2)c1 | 52 to 55 |

| SMILES | melting point [°C] |
| --- | --- |
| Cc1ccc2oc(=O)c(-c3cc(O)c(O)c(C#N)c3)nc2c1 | 278 to 280 |
| COC(=O)c1c(Cl)nc2cc3c(cc2c1CCl)OCCO3 | 130 to 132 |
| N#Cc1c[nH]cc1-c1ccc(F)c(Cl)c1F | 218 to 219 |
| CC(C)(C)C(=O)COc1ccc(Cl)cc1Cl | 65 |
| CCCCOC(=O)c1ccc(OC(=O)c2ccc(C(=O)Oc3ccc(C(=O)OCCCC)cc3)cc2)cc1 | 128 to 131 |
| COc1cc2c(cc1OC)CN(CCCOc1ccc(NC(=O)c3cccc4c(=O)c5ccccc5[nH]c34)cc1)CC2 | 220 |
| CCOC(=O)C1=C(C)NC(C)=C(C(=O)OCCN2CCN(C(c3ccc(C)cc3)c3ccc(C)cc3)CC2)C1c1cccc(OC)c1 (stereo not drawn) | 75 to 78 |
| CCC12CCC3c4ccc(OC)cc4CCC3C1CC=C2OC(C)=O (stereo not drawn) | 105 to 106 |
| O=C(Oc1c(F)c(F)c(F)c(F)c1F)c1ccc(F)c(F)c1Nc1ccc(I)cc1Cl | 108 to 110 |
| CCCCCCCCCCCCCCCCCCOC(=O)c1ccc(N)cc1 | 60 to 70 |
| CCCCCCCCCCCCCCOc1ccc(CN2C(=O)c3ccncc3C2=O)cc1 | 76 to 77 |
| CC1(COC2(C(F)(F)F)CN(C3CC3)C(=O)Nc3ccc(Cl)cc32)CC1 (stereo not drawn) | 166 to 167 |
| CC(C)(C)c1cc(SCC(=O)N2CCN(c3ccc(NC(=N)c4cccs4)cc3)CC2)cc(C(C)(C)C)c1O | 67 to 69 |
| Cc1ccc(NC(=O)Cc2ccc(OC(C)(C)C(=O)O)cc2)cc1 | 164 |
| O=C(NCCCn1ccc2cc(NC(=O)c3nc4ccc(Cl)cc4n3Cc3ccccc3)ccc21)c1cccnc1 | 206 to 207 |
| Cc1c2ccccc2c(-c2cc(Br)c(O)c(Br)c2)c2c1sc1ccccc12 | 224 to 226 |
| CCCCN1C(=O)C(C)(C)N=C(c2ccccc2F)c2cc([N+](=O)[O-])cc(Cl)c21 | 151 |
| COc1cccc(-n2c(CCl)nc3ccccc3c2=O)c1 | 180 to 182 |
| Cc1cc2c(cc1O)C(C)(C)CC1(CC(C)(C)c3cc(OCCCn4cccn4)c(C)cc3O1)O2 (stereo not drawn) | 239 to 241 |
| COc1ccc(OC)c2c1C=CNC(=O)C2 | 188 to 191 |
| COC(=O)c1cccc([N+](=O)[O-])c1N | 92 to 93 |
| CC(C)(C)OC(=O)N[C@@H](C=O)Cc1ccc(OCc2ccccc2)cc1 | 98 to 99 |
| O=C(Nc1cccc(S(=O)(=O)NC2CC2)c1)c1cnn2c(C(F)(F)F)cc(-c3ccc(C(F)(F)F)cc3)nc12 | 232 |

Reference: a melting point compilation (Tetko et al.; mined from patent text by program, amines drawn as free bases though some values may be those of a salt)
